Source: publication PMC10223284, “Category-Based Toxicokinetic Evaluations of Data-Poor Per- and Polyfluoroalkyl Substances (PFAS) using Gas Chromatography Coupled with Mass Spectrometry” (Toxics, 2023)
Several values for one entry are separate records, joined by “and”; a condition that tells them apart may be missing. Identical values can stand only once. Like-named read-outs stand apart in the source and are kept apart here.

What was measured:
[1] = Hepatic metabolic stability (hepatocyte clearance) assay, substrate depletion; assay type: in vitro ADME, human; settings: both sexes, human; for half-life at 1 μM: read-out: Linear Regression Results, Best-Fit Values, Half Life
Outline: (§1)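 Pooled 50-donor human cryopreserved hepatocytes (50,000 cells/100 μL) incubated with 1 μM compound at 37 °C with shaking. Parent loss quantified against internal standards over time to T240 in triplicate; T½ and Clint (μL/min/million cells) from ln concentration vs time, corrected for abiotic loss in cell-free and inactivated-hepatocyte controls.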

[2] = test system: pooled human cryopreserved primary hepatocyte suspensions; experiment: as above; assay type: in vitro ADME; settings: for Linear Regression Results, Best-Fit Values, Slope: hepatocyte time course
Outline: as §1

[3] = Abiotic loss in negative controls of the hepatocyte clearance assay (cell-free media, metabolically inactivated hepatocytes); assay type: in vitro ADME; settings: for Hep_Stab_Fail: flag for stability failure in hepatocyte clearance assay controls (1 or Fst = fail, 0 = pass)
Outline: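 Test compound at 1 μM incubated at 37 °C with shaking in complete William's medium E, either cell-free or with metabolically inactivated hepatocytes, then quenched with ice-cold acetonitrile for quantitative analysis.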

[4] = In vitro-in vivo extrapolation (IVIVE) to Css and administered equivalent dose (AED); design: species or system human; settings: for Clhep: IVIVE, hepatocyte Clint scaled to whole-liver clearance; for AED: administered equivalent dose from LOEC and Css; for Fub: fub=fup/(B:P), Fub set to 1 if needed; for CLint: scaled with HPGL 110 mill cells/g, Vl 1596 g
Outline: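 Measured plasma protein binding (fup) and hepatocyte Clint served as IVIVE inputs to estimate human steady-state plasma concentration (Css). fup was converted to blood unbound fraction using blood:plasma partitioning, and Clint was scaled to whole-liver clearance (L/h). AEDs were derived by combining Css with published in vitro lowest-observed effective concentrations.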

human primary cells = settings: cited from earlier work
human plasma [5] = experiment: Chemical stability in plasma over the UC assay time course (T5hr/T1hr); settings: for Time 1 hr / Time 1 hr, Run-specific Avg: amount measured in plasma sample at 1 hr; for Time 1 hr / Time 5 hr: replicates A, B, C; for Time 1 hr / Time 1 hr, Run-specific Avg / Time 5 hr / Time 5 hr, Run-specific Avg: unit not given; for Time 1 hr, Run-specific Avg / Time 5 hr, Run-specific Avg: run average; for Time 5 hr / Time 5 hr, Run-specific Avg: amount measured in plasma sample at 5 hr; for PPB_Stab_Fail: flag for stability failure in the plasma protein binding assay (1 = fail, 0 = pass); for Fstable.Med: median fraction stable in plasma, UC assay Level4
human plasma [6] = experiment: Ultracentrifugation (UC) plasma protein binding assay, fraction unbound in plasma (fup); settings: for Aqueous Fraction / Aqueous Fraction, Run-specific Avg: amount measured in aqueous fraction after ultracentrifugation, unit not given; for Aqueous Fraction: replicates A, B, C; for Aqueous Fraction, Run-specific Avg: run average; for fup: human plasma, 10 μM, ultracentrifugation, 37 °C; for Fup.Med: median fraction unbound in plasma; for Fup.Med / Fup.point: UC assay Level4; for Fup.point: point estimate of fraction unbound in plasma
[7] = hepatocytes, background-subtracted, read-out: Bkgd-Sub Clearance (µL/min/106 hepatocytes)
[8] = hepatocytes, hepatocyte clearance, Conc 1000 nM, not background adjusted, read-out: Unadj Clint
[9] = hepatocytes, pooled human hepatocyte suspensions, 1 μM, read-out: In Vitro Clint
[10] = hepatocytes, unadjusted hepatocyte intrinsic clearance, read-out: Unadj in vitro Clint
[11] = hepatocytes, hepatocyte time course, NS = slope not significant, read-out: Linear Regression Results, Best-Fit Values, Clearance
[12] = hepatocytes, hepatocyte time course, NS = slope not significant
[13] = s9, Bayesian analysis median, 1 μM assay concentration (Table S9), read-out: Clint.1.Med
[14] = hepatocyte incubation, Rep 1-3, start conc 1000 nM
[15] = buffer, no cells control, 0 vs 240 min, read-out: No Cells BkgdCl, Half Life
[16] = Assuming 1 mg/kg/day dose rate, BW 70 kg
[17] = human steady-state plasma concentration, assuming 1 mg/kg/day dosage
[18] = BioSeek lowest-observed effect concentration used for AED
[19] = minimum lowest-observed effect concentration, BioSeek platform
[20] = mean T5hr/T1hr ratio in plasma over all replicates/runs
[21] = heat treated hepatocytes, Rep 1-3

In the case of `OCCC(F)(F)C(F)(F)C(F)(F)C(F)(F)F` [4:2 Fluorotelomer alcohol], the hepatocyte CLint at 1 μM [1, 7] is reported as 37.7 µL/min/1e6 cells, the hepatocyte CLint at 1 μM [1, 8] is reported as 45.6 µL/min/1e6 cells and the hepatocyte CLint at 1 μM [1, 9] is reported as 37.7 µL/min/1e6 cells. For the same compound, the hepatocyte CLint at 1 μM [1, 10] was 45.6 µL/min/1e6 cells, the hepatocyte CLint at 1 μM [1, 11] was 45.6 µL/min/1e6 cells and the half-life at 1 μM [1, 12] was 0.506 h. The hepatocyte CLint at 1 μM [1, 13] was 306 µL/min/1e6 cells, the “Concentration (nM), Time 0 min” value [2, 14] was 12113.7 nM and 7313.14 nM and the “Concentration (nM), Time 15 min” value [2, 14] was 1692.86 nM and 1166.53 nM and 1804.74 nM. For the same compound, the “Concentration (nM), Time 30 min” value [2, 14] was 339.856 nM and 404.508 nM and 458.803 nM, the “Concentration (nM), Time 60 min” value [2, 14] was 47.9903 nM and 38.9317 nM and 58.7749 nM and the “Concentration (nM), Time 120 min” value [2, 14] was 18.0283 nM and 18.9716 nM and 31.4203 nM. For the same compound, the “Concentration (nM), Time 240 min” value [2, 14] was 21.5215 nM and 17.4089 nM and 13.0166 nM, the “Linear Regression Results, Best-Fit Values, Slope” value [2] was -0.02281 and the half-life at 1 μM [3, 15] was 2.92 h. The Hep_Stab_Fail [3] was 0, the “No Cells BkgdCl, Slope” value ([3]; no cells control, 0 vs 240 min) was -0.003956 and the “Negative Controls, No cells (NC), concentration at 0 min” value ([3]; Rep 1-3) was 10000 nM. For the same compound, the “Negative Controls, No cells (NC), concentration at 240 min” value ([3]; Rep 1-3) was 3870 nM, the Css [4, 16] was 0.0547 mg/L and 0.21 uM and the Clhep [4] was 51.672 L/h. It also gave an AED [4] of 9.6507 mg/kg/day, a Fub [4] of 0.3055 and a Css [4, 17] of 0.21 µM. The CLint [4] was 6620368 µL/min, the LOEC (human primary cells; [18]) was 2.00 µM and the LOEC (human primary cells; [19]) was 2 µM. For the same compound, the “Time 1 hr” value (human plasma [5]) was 13164.3 and 12271.8 and 13036, the “Time 1 hr, Run-specific Avg” value (human plasma [5]) was 12824.02 and the “Time 5 hr” value (human plasma [5]) was 8478.66 and 10253.1 and 9709.96. The “Time 5 hr, Run-specific Avg” value (human plasma [5]) was 9365.87, the “Stability (T5hr/ T1hr), Run-specific Avg” value (human plasma [5]; average of one UC run) was 0.730 and the PPB_Stab_Fail (human plasma [5]) was 0. The “Mean Stability” value (human plasma [5]; [20]) was 0.740, the Fstable.Med (human plasma [5]) was 0.21 and the “Aqueous Fraction” value (human plasma [6]) was 1744.82 and 3486.44 and 1261.67. For the same compound, the “Aqueous Fraction, Run-specific Avg” value (human plasma [6]) was 2164.31, the fup (human plasma [6]) was 0.1680 and the Fup.Med (human plasma [6]) was 0.235. For the same compound, the Fup.point (human plasma [6]) was 0.231.
`OCC(F)(F)C(F)(F)C(F)(F)C(F)(F)C(F)(F)C(F)(F)C(F)(F)C(F)(F)CO` [1H,1H,10H,10H-Perfluorodecane-1,10-diol] gave a hepatocyte CLint at 1 μM [1, 7] of 56.6 µL/min/1e6 cells, a hepatocyte CLint at 1 μM [1, 8] of 56.6 µL/min/1e6 cells and a hepatocyte CLint at 1 μM [1, 9] of 49.9 µL/min/1e6 cells. It also gave a hepatocyte CLint at 1 μM [1, 10] of 56.6 µL/min/1e6 cells, a hepatocyte CLint at 1 μM [1, 11] of 56.6 µL/min/1e6 cells and a half-life at 1 μM [1, 12] of 0.408 h. The hepatocyte CLint at 1 μM [1, 13] was 115 µL/min/1e6 cells, the “Concentration (nM), Time 0 min” value [2, 14] was 503.86 nM and 483.613 nM and 411.089 nM and the “Concentration (nM), Time 15 min” value [2, 14] was 181.506 nM and 316.777 nM and 270.544 nM. The “Concentration (nM), Time 30 min” value [2, 14] was 207.766 nM and 203.542 nM and 107.454 nM, the “Linear Regression Results, Best-Fit Values, Slope” value [2] was -0.0283 and the “In Vitro Clint” value ([2]; pooled human hepatocyte suspensions, 1 μM) was 49.86 μL/min/10^6 cells. The half-life at 1 μM ([3]; both sexes, human, heat treated hepatocytes control, 0 vs 240 min, read-out: HT BkgdCl, Half Life) was 4.63 h, the half-life at 1 μM [3, 15] was 3.43 h and the Hep_Stab_Fail [3] was 0. For the same compound, the “HT BkgdCl, Slope” value ([3]; heat treated hepatocytes control, 0 vs 240 min) was -0.002496, the “Negative Controls, Heat Treated (HT), concentration at 0 min” value [3, 21] was 370.156 nM and 373.519 nM and 421.129 nM and the “Negative Controls, Heat Treated (HT), concentration at 240 min” value [3, 21] was 211.286 nM and 241.673 nM and 189.092 nM. The “No Cells BkgdCl, Slope” value ([3]; no cells control, 0 vs 240 min) was -0.003368, the “Negative Controls, No cells (NC), concentration at 0 min” value ([3]; Rep 1-3) was 394.883 nM and 393.112 nM and 400.596 nM and the “Negative Controls, No cells (NC), concentration at 240 min” value ([3]; Rep 1-3) was 205.477 nM and 157.76 nM and 169.683 nM. The Css [4, 16] was 0.68 mg/L and 1.47 uM, the Clhep [4] was 4.275 L/h and the AED [4] was 1.3619 mg/kg/day. The Fub [4] was 0.008545, the Css [4, 17] was 1.47 µM and the CLint [4] was 8753422 µL/min. The LOEC (human primary cells; [18]) was 2.00 µM, the LOEC (human primary cells; [19]) was 2 µM and the “Time 1 hr” value (human plasma [5]) was 7311.43 and 5462.42 and 6036.15. The “Time 1 hr, Run-specific Avg” value (human plasma [5]) was 6270.00, the “Time 5 hr” value (human plasma [5]) was 3659.49 and 4052.89 and 4429.19 and the “Time 5 hr, Run-specific Avg” value (human plasma [5]) was 3856.19. The “Stability (T5hr/ T1hr), Run-specific Avg” value (human plasma [5]; average of one UC run) was 0.615, the “Stability (T5hr/ T1hr), Run-specific Avg” value (human plasma [5]; average of one UC run (run date in line above)) was 0.958 and the PPB_Stab_Fail (human plasma [5]) was 0. For the same compound, the “Mean Stability” value (human plasma [5]; [20]) was 0.657, the “Mean Stability” value (human plasma [5]; mean T5hr/T1hr ratio over all replicates and runs, plasma) was 1.003 and the Fstable.Med (human plasma [5]) was 0.997. For the same compound, the “Stability (T5hr/ T1hr), replicates A, B, C” value (human plasma [5]; single replicate of one UC run) was 1.07 and 1.007 and 0.9333 and 0.9811 and 1.003 and 1.254, the “Aqueous Fraction” value (human plasma [6]) was 3710.68 and 3362.14 and 3011.07 and the “Aqueous Fraction, Run-specific Avg” value (human plasma [6]) was 3361.30. The fup (human plasma [6]) was 0.0047, the Fup.Med (human plasma [6]) was 0.00408 and the Fup.point (human plasma [6]) was 0.00496. For the same compound, the “Fraction Unbound (fu), replicates A, B, C” value (human plasma [6]; single replicate of one UC run (aqueous fraction / Time 5 hr)) was 0.005168 and 0.005301 and 0.003775 and 0.006151 and 0.003351.
